pIC50: −log10 of the molar value. ≈ marks a conversion by molar mass, not a printed value. Where “and” joins values, the source holds several entries; their conditions need not be identical. Equal values may be shown once.

Data on 19 compounds can be found in patent publication US20070179123A1, “Methods and compositions for treating diseases associated with pathogenic proteins” (priority 2005, published 2007).

For one data set, the target named is amyloid peptide (Homo sapiens, UniProt P05067). The data set can be described thus: Inhibition of amyloid fibrillogenesis, Congo Red assay.
In data set [1] the target is PrP^Sc in 22L-infected N2a cells (Mus musculus, UniProt P04925). The data set is described as follows: cell-based. The conditions noted are these: for pIC50: IC50 for purging of PRP^Sc in 22L-infected N2a cells.
Data set [2] has as its target PrP^Sc in RML-infected N2a cells (Mus musculus, UniProt P04925). The data set can be described thus: cell-based. The following applies: for pIC50: IC50 for purging of PRP^Sc in RML-infected N2a cells.
The test system of a further data set is 22L-infected N2a cells. The data set is described as follows: Toxicity seen in 22L-infected N2a cell assay (light microscopy). The class given is cell-based, mouse. The conditions noted are these: @ 10 μM. Here is the method:
10 mM solutions of tafenoquine were prepared and diluted in DMSO and then into PBS prior to being introduced to the cell medium. 5 μL of solutions were added to the cell medium. DMSO concentrations in the cell media were never higher than 0.5% (v/v). After tafenoquine was added, the cells were incubated for 5 days at 37° C. in a CO2 incubator before being lysed. Prior to cell lysis, the cells were inspected by light microscopy for toxicity, bacterial contamination, and density compared to controls. After removal of the cell media, 50 μL of lysis buffer was added to each well. Lysis buffer was composed of 0.5% (w/v) Triton X-100, 0.5% (w/v) sodium deoxycholate, 5 mM Tris-HCl, pH 7.4 at 4° C., 5 mM EDTA, and 150 mM NaCl. Five minutes after adding lysis buffer, 25 μL of 0.1 mg/mL PK (Calbiochem) in TBS was added to each well and incubated at 37° C. for 50 minutes. 225 μL of 1 mM Pefabloc (Boehringer Mannheim) was then added to each well to inhibit PK activity. 250 μL of 1 mM Pefabloc was added to samples that were not PK-treated.

The target of a further data set is Aβ42 fibrils (Homo sapiens, UniProt P05067). The data set is described as follows: Fibril disassociation gel assay. The class given is biochemical. The following applies: 3-100 μg/ml compound. The protocol:
(§1) The 40 μM solution was used in fibrillogenesis assay, as described below. The 60 μM peptide solution was undisturbed for six months and allowed to form fibrils, and was utilized in a fibril disassociation assay.
(§2) Mefloquin was dissolved in DMSO and diluted 100 fold into the final reaction mixture, keeping the DMSO concentration constant at 1% (v/v). After incubation, 10 ul of each sample was mixed with 2.5 μl of 4×SDS-sample buffer (Invitrogen), and loaded onto a precast 12% BT gel (Invitrogen). The electrophoresis was run with MES running buffer (Invitrogen) at 200V, and the gels were stained using a silverXpress silver staining kit (Invitrogen). The lane assignments are as follows: Lane 1: molecular weight markers, 2; 40 μM fresh Aβ42, Lanes 3-7: 40 μM Aβ42 with mefloquin from 0, 3, 10, 30 to 100 μg/ml. Lanes 8-12: 10 μl Aβ42 fibrils with mefloquin from 0, 3, 10, 30 to 100 μg/ml.
(§3) Gels were photographed and scanned, and the band densities was analyzed using NIH Imagequant, version 5.2 (GE Healthcare, Sunnyvale, Calif.).

Data set [3] addresses yeast prion protein Sup-NM (Saccharomyces cerevisiae, UniProt P05453). The data set can be described thus: biochemical. The following applies: for pIC50: IC50 for inhibition of Sup35 yeast prion polymerization.
Data set [4] has as its system yeast PSI^+ (the yeast prion protein Sup35). The data set is described as follows: microbe, parasite or virus in culture. The class given is cell-based.
Another data set addresses T1, Aβ42 (Homo sapiens, UniProt P05067).
T1 construct: 40 μM fresh Aβ42, Lanes 3-7: 40 μM Aβ42 with mefloquin
The data set is described as follows: Amyloid fibrillogenesis gel assay. It counts as biochemical. The following applies: 40 μM Aβ42, 3-100 μg/ml compound, 5 days. Here is the method:
as §1, §2, §3

Chain of yeast prion protein Sup-NM (P05453 1-254 limits assumed): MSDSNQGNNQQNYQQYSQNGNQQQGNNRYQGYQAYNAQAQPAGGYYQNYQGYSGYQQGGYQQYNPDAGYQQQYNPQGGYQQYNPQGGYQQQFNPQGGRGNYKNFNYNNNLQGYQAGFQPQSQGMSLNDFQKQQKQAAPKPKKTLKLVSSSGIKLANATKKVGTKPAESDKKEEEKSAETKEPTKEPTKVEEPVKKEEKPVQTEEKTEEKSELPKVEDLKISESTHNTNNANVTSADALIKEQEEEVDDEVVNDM
Chain of PrP^Sc in 22L-infected N2a cells (P04925 23-230 limits assumed): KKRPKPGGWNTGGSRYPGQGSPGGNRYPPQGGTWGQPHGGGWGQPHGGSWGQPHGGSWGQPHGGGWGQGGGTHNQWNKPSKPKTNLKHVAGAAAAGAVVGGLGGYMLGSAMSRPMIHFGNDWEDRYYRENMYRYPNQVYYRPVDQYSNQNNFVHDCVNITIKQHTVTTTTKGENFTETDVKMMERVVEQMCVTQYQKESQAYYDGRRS
Chain of PrP^Sc in RML-infected N2a cells (P04925 23-230 limits assumed): as above
Chain of amyloid peptide (P05067 672-713): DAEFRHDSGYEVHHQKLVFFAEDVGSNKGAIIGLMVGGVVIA
Chain of Aβ42 fibrils (P05067 672-713, species assumed): as the sequence (P05067 672-713) above
T1 sequence (P05067 672-713, species assumed): as the sequence (P05067 672-713) above

One may read the pIC50 as the IC50 on a negative log10 scale, so that one unit is a factor of ten. Read a low pIC50 as a large IC50. The compound `CCCCCCN(CCCCCC)CCCCCCNc1cc(OC)cc2c(C)ccnc12` had a negative logarithm of the IC50 (pIC50) at amyloid peptide of over 4.96.

On to `COc1cc(NC(C)CCC(C)(C)N)c2nccc(C)c2c1Oc1cccc(C(F)(F)F)c1` (stereo not drawn), for which the pIC50 on amyloid peptide was 4.19 to 4.49. In turn, `CCN(CC)CCCC(C)Nc1cc(OC)cc2c(C)ccnc12` (stereo not drawn) had a pIC50 in [1] of 5.30 to 5.52. `COc1cc(NCCCCCNC(C)C)c2nccc(C)c2c1` had a pIC50 on amyloid peptide of about 4.80.

In [2], `C=CC1CN2CCC1CC2[C@H](O)c1ccnc2ccc(OC)cc12` (stereo partly drawn) showed a negative logarithm of the IC50 (pIC50) of 5.22.

The compound `CCC1CN2CCC1CC2[C@H](O)c1ccnc2ccc(OC)cc12` (stereo partly drawn) gave a pIC50 in [2] of 4.90. The same measure, in the same setting: in the case of `C=CC1CN2CCC1CC2[C@@H](O)c1ccnc2ccc(OC)cc12` (stereo partly drawn) it was 5.52.

In the case of `CCC1CN2CCC1CC2[C@@H](O)c1ccnc2ccc(OC)cc12` (stereo partly drawn), in the data set on RML-infected N2a cells, the “Toxicity (note in the RML-infected N2a cells column)” value was “(toxic @ μM)”.

With `C=CC1CN2CCC1CC2[C@@H](O)c1ccnc2ccccc12` (stereo partly drawn), in data set [2], the negative logarithm of the IC50 (pIC50) was 5.22. Turning to `C=CC1CN2CCC1CC2[C@H](O)c1ccnc2ccccc12` (stereo partly drawn), the pIC50 in data set [2] is 4.74. In the case of `COc1cc(C)c2c(Oc3cccc(C(F)(F)F)c3)c(OC)cc(NC(C)CCCNO)c2n1` (stereo not drawn), the negative-log IC50 (pIC50) in data set [2] is about 4.98. Turning to `Oc1ccc(Cl)c2cccnc12`, in the data set on 22L-infected N2a cells, the “Toxicity (note in the 22L-infected N2a cells column)” value was “Toxic @ 10 μM”. `C=CC1CN2CCC1CC2C(O)c1ccnc2ccc(OC)cc12` (stereo not drawn) gave a negative logarithm of the IC50 (pIC50) in [1] of 5.30 to 5.52. Turning to `COc1cc(NC(C)CCCN)c2ncccc2c1` (stereo not drawn), the pIC50 in [2] is over 5.00.

By inhibition is commonly meant the share of the control response that was lost under treatment. On to `OC(c1cc(C(F)(F)F)nc2c(C(F)(F)F)cccc12)C1CCCCN1` (racemic) [mefloquine, DL-erythro-α-2-piperidyl-2,8-bis(trifluoromethyl)-4-quinolinemethanol, reference compound], for which the pIC50 was 6.30 in data set [2]; 5.89 and 5.92 in data set [1]. At Aβ42 fibrils, the “disassociation of amyloid fibrils, gel assay (in words)” value was “increase of monomeric amyloid peptide”. Moreover, the inhibition at 150 µg/mL in data set [3] (read-out: inhibition of the polymerization of Sup-NM) was about 55%. Besides, the “inhibition of the induction of PSI+ (in words)” value in [4] is given as “concentration dependent inhibition”. For the same compound, at Aβ42, the “inhibition of fibrillogenesis of amyloid peptide, gel assay (in words)” value is given as “inhibited fibrillogenesis”. One may read the IC50 as the concentration that gives 50% inhibition. Regarding `COc1cc(C)c2c(Oc3cccc(C(F)(F)F)c3)c(OC)cc(NC(C)CCCN)c2n1` (racemic) [tafenoquine, (±)-8-[(4-amino-1-methylbutyl)amino]-2,6-dimethoxy-4-methyl-5-(3-trifluoromethylphenoxy)quinoline], the pIC50 is 6.14 in data set [2]; 4.95 in [3] (thioflavin T, 25° C.); under 5.66 in data set [1]. In addition, in [3] (concentrations up to 200 μg/mL), the “inhibition of Sup-NM amyloid polymerization (in words)” value is on record as “nearly complete inhibition”. For the same compound, the IC50 in data set [4] (Saccharomyces cerevisiae, 24 h, read-out: IC50 for inhibition of induction of PSI+) turned out to be 4.5 µg/mL (≈ 9.71 µM). As to `COc1cc(NC(C)CCCN)c2nccc(C)c2c1Oc1cccc(C(F)(F)F)c1` (stereo not drawn) [compound 3], the negative logarithm of the IC50 (pIC50) in data set [2] was 6.22 and 6.27; at amyloid peptide it was 4.64; in [3] (thioflavin T, 25° C.) it was ~4.46 and 4.46; in data set [1], 6.29 and 5.92. Further, the “disassociation of amyloid fibrils, gel assay (in words)” value at Aβ42 fibrils is listed as “increase of monomeric amyloid peptide”. Besides, the “inhibition of fibrillogenesis of amyloid peptide, gel assay (in words)” value at Aβ42 is on record as “inhibited fibrillogenesis”. `COc1cc(CO)c2c(Oc3cccc(C(F)(F)F)c3)c(OC)cc(NC(C)CCCN)c2n1` (stereo not drawn) [compound 8] showed a pIC50 against amyloid peptide of about 4.98. As to “(±)-8-[(4-amino-1-methylbutyl) amino]-2,6-dimethoxy-4-methyl-5-(3-trifluoromethylphenoxy)quinoline [tafenoquine]”, the “IC50 for purging of PRP^Sc in RML-infected N2a cells” value in data set [2] was 0.332 µg/mL. For the same compound, the “IC50 for inhibition of Sup35 yeast prion polymerization” value in [3] (thioflavin T, 25° C.) amounted to 5.2 ± 1.1 µg/mL. Also, the “IC50 for inhibition of induction of PSI+” value in [4] (24 h with 50 μM copper sulfate) was determined as 4.5 µg/mL. The “IC50 for purging of PRP^Sc in 22L-infected N2a cells” value in [1] was 0.44 µg/mL.
